For eight molecules, IC50 results are on record in ChEMBL document CHEMBL5500429, “ERAP Inhibitors in Autoimmunity and Immuno-Oncology: Medicinal Chemistry Insights” (J Med Chem, 2024).

Each structure is given as a SMILES string.

Experiment [1] has as its target T1, Endoplasmic reticulum aminopeptidase 2 (Homo sapiens, UniProt Q6P179). The experiment is described as follows: Inhibition of ERAP2 (unknown origin) using R-AMC as substrate.
The target in experiment [2] is T1, Endoplasmic reticulum aminopeptidase 2. The experiment is described as follows: Inhibition of C-terminal Hexa-histidine-tagged human recombinant ERAP2 expressed in Sf9 cells using R-AMC as substrate incubated for 15 mins by Michaelis-Menten analysis.
The next experiment has as its target Aminopeptidase N (Homo sapiens, UniProt P15144). The experiment is described as follows: Inhibition of FLAG-tagged human recombinant Aminopeptidase N.
Experiment [3] addresses T2, Endoplasmic reticulum aminopeptidase 1 (Homo sapiens, UniProt Q9NZ08). The experiment is described as follows: Inhibition of C-terminal Hexa-histidine-tagged human recombinant ERAP1 expressed in Sf9 cells using L-AMC as substrate incubated for 15 mins by Michaelis-Menten analysis.
For experiment [4], the target named is T2, Endoplasmic reticulum aminopeptidase 1. As to the kind of experiment: Inhibition of ERAP1 (unknown origin) using L-AMC as substrate.
A short description of experiment [5]: Inhibition of C-terminal Hexa-histidine-tagged human recombinant IRAP expressed in Sf9 cells using R-AMC as substrate incubated for 15 mins by Michaelis-Menten analysis.
Another experiment concerns the target Cytosol aminopeptidase (Homo sapiens, UniProt P28838). The experiment is described as follows: Inhibition of human recombinant Leucine aminopeptidase 3.
The target in experiment [6] is T3, Leukotriene A-4 hydrolase (Homo sapiens, UniProt P09960).
T3 sequence (P09960 whole entry): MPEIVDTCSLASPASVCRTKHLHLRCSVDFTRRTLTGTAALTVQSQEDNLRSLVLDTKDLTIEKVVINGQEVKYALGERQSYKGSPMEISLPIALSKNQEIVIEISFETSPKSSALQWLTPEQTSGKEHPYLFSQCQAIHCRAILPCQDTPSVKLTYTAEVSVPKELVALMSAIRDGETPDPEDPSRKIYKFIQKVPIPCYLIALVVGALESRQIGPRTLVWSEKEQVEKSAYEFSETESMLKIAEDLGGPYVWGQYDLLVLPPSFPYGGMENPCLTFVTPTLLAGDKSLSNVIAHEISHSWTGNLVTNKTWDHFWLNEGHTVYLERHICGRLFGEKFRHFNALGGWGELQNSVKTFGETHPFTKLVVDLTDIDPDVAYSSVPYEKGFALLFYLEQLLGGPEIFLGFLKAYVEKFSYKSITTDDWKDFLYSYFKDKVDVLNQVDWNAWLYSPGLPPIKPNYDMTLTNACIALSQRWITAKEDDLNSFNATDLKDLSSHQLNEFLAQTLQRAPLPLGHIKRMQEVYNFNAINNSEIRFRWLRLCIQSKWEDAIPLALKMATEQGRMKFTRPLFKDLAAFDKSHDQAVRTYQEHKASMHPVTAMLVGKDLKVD
The experiment is described as follows: Inhibition of full length human recombinant Leukotriene A-4 hydrolase expressed in baculovirus infected Insect cells. On the set-up: species or system Insect cell.

T1 sequence (Q6P179 whole entry): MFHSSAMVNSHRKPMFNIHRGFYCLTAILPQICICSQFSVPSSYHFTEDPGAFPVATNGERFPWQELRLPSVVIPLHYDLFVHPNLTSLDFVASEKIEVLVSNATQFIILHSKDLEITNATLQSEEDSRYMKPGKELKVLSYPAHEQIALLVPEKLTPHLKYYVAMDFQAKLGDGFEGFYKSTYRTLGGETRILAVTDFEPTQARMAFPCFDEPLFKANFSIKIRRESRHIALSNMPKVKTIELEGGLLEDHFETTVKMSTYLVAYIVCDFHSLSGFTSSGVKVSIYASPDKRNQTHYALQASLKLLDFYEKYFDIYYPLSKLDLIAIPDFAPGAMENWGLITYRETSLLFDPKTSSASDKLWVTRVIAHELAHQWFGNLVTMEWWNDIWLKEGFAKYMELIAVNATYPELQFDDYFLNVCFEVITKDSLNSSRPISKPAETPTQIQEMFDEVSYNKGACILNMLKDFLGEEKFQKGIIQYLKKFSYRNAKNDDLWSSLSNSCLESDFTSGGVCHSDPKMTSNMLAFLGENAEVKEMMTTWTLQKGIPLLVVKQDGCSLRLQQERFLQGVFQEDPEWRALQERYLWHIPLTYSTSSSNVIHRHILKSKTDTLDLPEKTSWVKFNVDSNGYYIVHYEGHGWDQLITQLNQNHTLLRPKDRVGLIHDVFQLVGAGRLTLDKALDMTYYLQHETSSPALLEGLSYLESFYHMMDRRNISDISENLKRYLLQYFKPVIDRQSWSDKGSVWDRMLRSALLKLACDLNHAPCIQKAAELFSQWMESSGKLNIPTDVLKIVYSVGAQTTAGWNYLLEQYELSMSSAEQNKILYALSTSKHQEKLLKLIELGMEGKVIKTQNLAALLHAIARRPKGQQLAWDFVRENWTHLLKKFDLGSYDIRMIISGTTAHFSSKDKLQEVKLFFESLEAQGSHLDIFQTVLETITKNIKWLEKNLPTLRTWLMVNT
T2 sequence (Q9NZ08 whole entry): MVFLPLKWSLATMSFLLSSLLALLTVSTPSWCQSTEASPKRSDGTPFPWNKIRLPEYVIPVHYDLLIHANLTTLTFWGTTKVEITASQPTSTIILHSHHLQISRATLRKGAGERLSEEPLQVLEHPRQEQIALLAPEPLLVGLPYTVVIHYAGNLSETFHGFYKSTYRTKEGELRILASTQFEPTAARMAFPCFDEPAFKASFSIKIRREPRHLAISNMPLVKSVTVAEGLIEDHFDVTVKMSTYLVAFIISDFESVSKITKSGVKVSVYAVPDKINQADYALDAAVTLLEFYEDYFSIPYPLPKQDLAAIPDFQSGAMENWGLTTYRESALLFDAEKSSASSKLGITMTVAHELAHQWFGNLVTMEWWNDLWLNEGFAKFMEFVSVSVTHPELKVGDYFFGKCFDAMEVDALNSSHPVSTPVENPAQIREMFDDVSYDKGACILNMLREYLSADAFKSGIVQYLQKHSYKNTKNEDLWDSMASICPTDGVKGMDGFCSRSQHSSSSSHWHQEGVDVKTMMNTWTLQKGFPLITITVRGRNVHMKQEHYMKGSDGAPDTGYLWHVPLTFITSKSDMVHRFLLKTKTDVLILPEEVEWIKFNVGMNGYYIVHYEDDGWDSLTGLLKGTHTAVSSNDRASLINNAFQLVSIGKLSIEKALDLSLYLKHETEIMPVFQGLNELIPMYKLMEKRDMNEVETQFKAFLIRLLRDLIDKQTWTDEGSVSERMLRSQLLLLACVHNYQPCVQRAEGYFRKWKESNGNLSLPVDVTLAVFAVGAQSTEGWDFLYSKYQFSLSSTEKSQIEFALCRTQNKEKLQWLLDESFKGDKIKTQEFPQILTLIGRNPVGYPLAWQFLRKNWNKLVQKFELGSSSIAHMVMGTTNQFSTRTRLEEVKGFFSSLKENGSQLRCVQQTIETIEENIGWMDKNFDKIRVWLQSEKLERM
Chain of Aminopeptidase N (P15144 whole entry): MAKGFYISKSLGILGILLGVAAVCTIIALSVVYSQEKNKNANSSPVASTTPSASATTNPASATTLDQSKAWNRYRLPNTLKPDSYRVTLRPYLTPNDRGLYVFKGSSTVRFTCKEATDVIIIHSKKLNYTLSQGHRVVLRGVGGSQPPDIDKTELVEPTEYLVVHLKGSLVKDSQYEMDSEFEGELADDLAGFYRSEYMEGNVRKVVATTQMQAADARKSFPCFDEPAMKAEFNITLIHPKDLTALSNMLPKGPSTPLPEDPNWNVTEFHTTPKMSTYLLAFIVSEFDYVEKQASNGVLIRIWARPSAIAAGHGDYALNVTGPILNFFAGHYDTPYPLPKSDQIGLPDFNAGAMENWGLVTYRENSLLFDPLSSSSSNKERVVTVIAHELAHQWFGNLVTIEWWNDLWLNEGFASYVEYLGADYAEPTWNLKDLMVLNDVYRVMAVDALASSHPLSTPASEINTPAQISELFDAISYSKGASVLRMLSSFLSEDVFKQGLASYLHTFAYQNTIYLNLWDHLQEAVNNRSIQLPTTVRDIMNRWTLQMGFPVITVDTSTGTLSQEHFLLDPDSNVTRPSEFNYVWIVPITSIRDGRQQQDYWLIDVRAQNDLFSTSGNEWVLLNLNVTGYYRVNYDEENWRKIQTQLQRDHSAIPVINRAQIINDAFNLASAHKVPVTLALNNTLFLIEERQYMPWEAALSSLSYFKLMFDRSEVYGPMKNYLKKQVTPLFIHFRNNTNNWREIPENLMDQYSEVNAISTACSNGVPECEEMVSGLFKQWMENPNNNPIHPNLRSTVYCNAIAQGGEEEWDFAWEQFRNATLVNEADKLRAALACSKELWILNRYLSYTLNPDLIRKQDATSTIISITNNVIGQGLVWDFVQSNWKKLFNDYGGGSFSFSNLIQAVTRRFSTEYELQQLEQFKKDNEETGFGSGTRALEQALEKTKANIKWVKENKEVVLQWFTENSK
Chain of Cytosol aminopeptidase (P28838 whole entry): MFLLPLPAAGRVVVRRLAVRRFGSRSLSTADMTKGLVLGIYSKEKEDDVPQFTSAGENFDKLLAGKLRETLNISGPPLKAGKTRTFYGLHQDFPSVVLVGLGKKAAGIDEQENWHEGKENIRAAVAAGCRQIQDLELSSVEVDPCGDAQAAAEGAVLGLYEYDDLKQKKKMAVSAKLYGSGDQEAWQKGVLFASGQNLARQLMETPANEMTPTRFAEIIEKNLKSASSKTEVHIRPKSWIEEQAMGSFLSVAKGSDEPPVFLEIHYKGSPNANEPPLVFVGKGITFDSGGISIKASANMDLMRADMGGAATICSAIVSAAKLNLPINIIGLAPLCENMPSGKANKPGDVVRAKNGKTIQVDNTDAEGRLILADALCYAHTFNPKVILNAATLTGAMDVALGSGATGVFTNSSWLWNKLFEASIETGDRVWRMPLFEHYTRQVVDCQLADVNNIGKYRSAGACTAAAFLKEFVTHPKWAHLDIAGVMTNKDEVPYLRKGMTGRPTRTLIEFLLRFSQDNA

Turning to `COc1ccc(C(=O)O)cc1S(=O)(=O)Nc1ccc(C(F)(F)F)cc1N1CCCCC1`, the IC50 – broadly, the concentration that gives 50% inhibition – in experiment [1] came to 26.8 µM.

With `CC(C)C[C@H](N)CS`, the figures for the IC50 (in experiment [2]; at Aminopeptidase N; in experiment [3]) were 0.61 µM, 0.008 µM and 0.11 µM, respectively.

Molecule `COc1ccc(C[C@@H](C(=O)NO)n2cc(CNS(=O)(=O)c3ccc(-c4ccccc4)s3)nn2)cc1` displayed an IC50 in experiment [4] above 100 µM.

With `O=C(NO)[C@H](Cc1ccc(Oc2ccccc2)cc1)n1cc(CNS(=O)(=O)c2ccc(-c3ccccn3)s2)nn1`, the IC50 in experiment [4] was above 100 µM.

`O=C(C[C@H](Cc1ccc(O)cc1)n1nncc1CNS(=O)(=O)c1ccc(-c2ccccn2)s1)NO`: the IC50 in experiment [4] is above 100 µM.

On to `CC(C)C[C@@H](N)[C@H](O)C(=O)N[C@H](C(=O)N[C@H](C(=O)N[C@@H](CC(=O)O)C(=O)O)C(C)C)C(C)C` [AMASTATIN], for which the IC50 came to 25 µM in experiment [5] and 22 µM in experiment [3].

As to `CC(C)C[C@@H](C(=O)N[C@H](C(=O)OC1CCCC1)c1ccccc1)[C@H](O)C(=O)NO` [TOSEDOSTAT], the IC50 came to 0.005 µM at Cytosol aminopeptidase; 0.77 µM in experiment [2]; 0.03 µM on Aminopeptidase N; 0.008 µM in experiment [6]; 18 µM in experiment [3].

Consider `CC(C)C[C@H](NC(=O)[C@@H](O)[C@H](N)Cc1ccccc1)C(=O)O` [UBENIMEX], for which the half-inhibitory concentration (IC50) in experiment [5] is above 100 µM; in experiment [3] it was 11 µM.
